Measurements reported in US7745465B2, “Method of enhancing cellular production of molecular chaperone, hydroxylamine derivatives useful for enhancing the chaperone production and the preparation thereof” (CytRx Corporation, priority 1995, dated 2010).

What was measured:
Hsp72 [1] = experiment: Heat stress induced hsp72 expression in rat testicular explant; type: cell-based; conditions: 10^−5 M, 15 min. before 43° C. 30 min.
Method: Testis of CFY rats weighing of 200 g were removed in sterile conditions and the released testicular tubuli were suspended in 10% fetal bovine serum containing MEM culture medium in that way that five ml suspension contained 50-100 mg tissue. The explants were incubated in 5% CO2 containing humidified air at 37° C. for one hour, then the cultures were treated with 10^−5 M concentration of the tested compounds. After a further incubation for 15 min. at 37° C., explants were exposed to heat shock at 43° C. for 30 min. The amount of the induced hsp72 was measured after a further 6 hours incubation at 37° C.

Male Sprague-Dawley rats = experiment: Protection against cardiac ischaemia: survival after 5 minutes coronary occlusion and reperfusion; type: in vivo, rat; conditions: i.v. 1 mg/kgbw, 5 min. before the occlusion; non-treated control 10
Method: Male Sprague-Dawley rats (380-450 g b.w.) were anaesthetized with sodiumpentobarbital (Nembutal 60 mg/kg body weight, i.p.) and artificially ventilated with room air (2 ml/100 g; 54 stroke/minutes) via tracheotomy. The right carotid artery was catheterized and connected to a pressure transducer (BPR-01, Stoelting) for the measurement of systemic arterial blood pressure (BP) by means of a preamplifier (Hg-02, Experimetria). Hydroxylamine derivatives disclosed in Example 5 were administered via the venous cannule to jugular vein (i.v.) and orally (p.o.). Heart rate (HR) was measured by a cardiotachometer (HR-01, Experimetria). The electrocardiogram (ECG standard lead II) was recorded on a devices recorder (MR-12, Medicor) by means of subcutaneous steel needles electrodes. The chest was opened by a left thoracotomy and the heart was exteriorized by a gentle pressure on the right side of the rib cage. A 4-0 silk suture was quickly placed under the main left coronary artery as described by Selye et al. (1960). The heart was carefully replaced in the chest and the animal left to recover. Rectal temperature was monitored and kept constant at 37 C. The experimental protocol was initiated with a 15 minute stabilization period during which the observation of a sustained blood pressure less than 70 mmHg and or the occurrence of anhythmia led to exclusion. Myocardial ischemia was induced with coronary occlusion for 5 minutes and reperfusion allowed for 10 minutes.
During the entire experiment BP, HR and ECG were continuously registered on a multiscriptor (R61-6CH, Medicor). Hydroxylamine derivatives, the tautomeric forms of which are represented by structures (I) and (II), were administered 5 to 60 minutes before the occlusion after i.v. and p.o. treatment, respectively. […]
The mean duration of ventricular tachycardia (VT) and/or ventricular fibrillation (VF) during the first 3 minutes of reperfusion was analyzed by one-way analysis of variance. The incidence of VF was analyzed using a chi-square test. […] The haemodynamic variables were analyzed using Student's “t”-test. The critical level of significance was set at p<0.05. All results were expressed as a means±S.E.M. Drugs were administered i.v. in a dose of 1 mg/kgbw 5 min. before the occlusion.
The hydroxylamine derivatives that are found to be particularly advantageous for protecting an animal against ischemic/reperfusion injury are listed below. Survival (%) indicates the percent of animals survived the effects of 5 minutes coronary occlusion.

HSP72 [2] = experiment: Heat stress induced HSP72 production in 3T3 cells; type: cell-based, mouse; conditions: 10^−5 M
Method: From the applied cells the 3T3 and L-929 mouse fibroblasts were cultured in MEM medium and grew in monolayer, the U-937 human leukemia cells were maintained in RPMI-1640 medium, in suspension culture, while the HeLa human epithelial cells were cultured in DMEM medium and in monolayer form. Cell cultures were maintained as described in example 6.2 (a) with the difference that cells were cultured in the above mentioned culture mediums.
Experiments were carried out applying stress before and after the drug treatment. Stress was provoked by heat, by chemical agent, HgCl2 treatment. The test compounds were applied in the treatments at the 10^−5 M concentration.
The experiments on 3T3 cell applying heat stress were performed as described in the 6.2. (c) point of example 6, with the difference that stress was induced by a 30 min. exposure at 43° C. temperature and treatment with the test compounds was performed 15 min. before or 100 min. after the heat stress.
Immunodetection was carried out using the HSP72 specific SPA 810 (StressGene) primary and the horse-radish peroxidase conjugated A9044 (Sigma) secondary antibodies. Densitometric evaluation was performed by a LKB Ultrascan XL densitometer.

Hsp72 [3] = experiment: Heat stress induced hsp72 expression in rat spleen explant; type: cell-based; conditions: 10^−5 M, 15 min. before 43° C. 30 min.
Method: These experiments were performed on rat spleen and testicular tissue explants applying heat stress after treatment with the experimental compounds. Experiments on spleen suspension were carried out as follows.
Spleens of CFY rats weighing 200 g were removed aseptically, and were homogenized in 10% fetal bovine serum containing MEM culture medium. The concentration of the cell suspension was adjusted to 50-100 mg/5 ml.
Five ml cell suspension was given into each of the culture dishes of 6 cm of diameter and the explants were incubated for one hour in a 5% CO2 containing humidified air at 37° C. then cultures were treated with the 10^−5 M concentration of the test compounds. After further 15 min. incubation at 37° C. the cultures were exposed to heat shock at 43° C. for 30 min. in an incubator. The amount of the induced hsp72 was measured after a further 6 hours incubation at 37° C.

GRP-94 = experiment: Level of GRP-94 in STZ diabetic rat liver (Western blot); type: in vivo
[4] = treatment 15 min. before 30 min. 43° C. heat stress
[5] = treatment 100 min. after 30 min. 43° C. heat stress

For `Cl.OC(CNC1CCCCC1)CON=C(Cl)c1cccc(C(F)(F)F)c1` (stereo not drawn), the melting point was 147 to 149.5 °C.

Compound `Cl.OC(CON=C(Cl)c1nccc2ccccc12)CN1CCCCC1` (stereo not drawn) has a melting point of 168 to 172 °C.

With `N=C(NOCC(CN1CCCCC1)OC(=O)c1ccco1)c1cccnc1.O=C(O)/C=C\C(=O)O` (stereo not drawn) the melting point was 167 to 171.5 °C.

Compound `Cl.N=C(NOCC(CN1CCCCC1)OC(=O)c1ccccc1Cl)c1cccnc1` (stereo not drawn) has a melting point of 91 to 94 °C.

`Cl.N=C(NOCCCN1CCCCC1)c1cccc(C(F)(F)F)c1` gave a melting point of 116 to 119 °C.

Compound `COc1ccc(CC(=N)NOCCCN2CCCCC2)cc1OC.Cl.Cl` has a melting point of 207 to 209 °C.

`CN1CCN(CCCONC(=N)c2cccnc2)CC1.Cl` showed a melting point of 127 to 130 °C.

Work on `Cl.N=C(NOCCCN1CCCCC1)c1cccc([N+](=O)[O-])c1` yielded a melting point of 158 to 162 °C.

With `Cl.Cl.N=C(NOCCCN1CCCCC1)c1ccccc1` the melting point was 207 to 209 °C.

`Cl.Cl.N=C(NOCC(O)CN1CCCCC1)c1ccc([N+](=O)[O-])cc1` (stereo not drawn) showed a melting point of 184 to 189 °C.

`Cl.Cl.N=C(NOCC(O)CN1CCCCC1)c1cccs1` (stereo not drawn) gave a melting point of 157 to 170 °C.

Compound `Cl.Cl.N=C(NOCC(O)CN1CCCCC1)c1ccccc1[N+](=O)[O-]` (stereo not drawn) has a melting point of 200 to 208 °C.

Compound `Cl.OC(CONC(=NC1CCCCC1)c1cccnc1)CN1CCCCC1` (stereo not drawn) has a melting point of 130 to 134 °C.

`Cl.O=[N+]([O-])c1ccc(C(Cl)=NOCC(O)CN2CCCCC2)cc1` (stereo not drawn) showed a melting point of 180 to 182 °C.

With `Cl.O=[N+]([O-])c1cccc(C(Cl)=NOCC(O)CN2CCCCC2)c1` (stereo not drawn) [Example 4, N-[2-hydroxy-3-(1-piperidinyl)propoxy]-3-nitro-benzenecarboximidoyl chloride monohydrochloride] the “Level of hsp72 relative to the stress exposed control” value (Hsp72 [1]) was “+ (21-50%)” and the “Survival (%)” value (Male Sprague-Dawley rats) was 50%.

For `Cl.O=[N+]([O-])c1ccccc1C(Cl)=NOCC(O)CN1CCCCC1` (stereo not drawn) [Example 6, N-[2-hydroxy-3-(1-piperidinyl)propoxy]-2-nitro-benzenecarboximidoyl chloride monohydrochloride], the “Level of hsp72 relative to the stress exposed control” value (Hsp72 [1]) was “+ +”, the “HSP72 level relative to the stress exposed control” value (HSP72 [2]; [4]) was “+++ (>100%)” and the “HSP72 level relative to the stress exposed control” value (HSP72 [2]; [5]) was 0 (0 indicates that the treatment altered by ±20% the stress induced hsp72 level in the cells). For the same compound, the “Survival (%)” value (Male Sprague-Dawley rats) was 100%.

With `CC(C)(C)NCC(O)CON=C(Cl)c1cccc(C(F)(F)F)c1.Cl` (stereo not drawn) [Example 9, N-[3-[(1,1-Dimethylethyl)amino]-2-hydroxypropoxy]-3-trifluoromethylbenzene-carboximidoyl chloride monohydrochloride] the “Level of hsp72 relative to the stress exposed control” value (Hsp72 [1]) was “+ (21-50%)” and the “Survival (%)” value (Male Sprague-Dawley rats) was 100%.

In the case of `CCN(CC)CC(O)CON=C(Cl)c1cccc(C(F)(F)F)c1.Cl` (stereo not drawn) [Example 12, N-[3-(diethylamino)-2-hydroxypropoxy]-3-trifluoromethyl-benzenecarboximidoyl chloride monohydrochloride], the melting point is reported as 121 to 128 °C and the “Level of hsp72 relative to the stress exposed control” value (Hsp72 [1]) is reported as “+ (21-50%)”.

In the case of `O=C(O)/C=C\C(=O)O.O=C(OC(CON=C(Cl)c1cccnc1)CN1CCCCC1)c1ccccc1` (stereo not drawn) [Example 21, N-[2-benzoyloxy-3-(1-piperidinyl)propoxy]-3-pyridinecarboximidoyl chloride (Z)-2-butenedioate (1:1)], the melting point is reported as 134 to 136 °C and the “Level of hsp72 relative to the stress exposed control” value (Hsp72 [1]) is reported as “+ +”.

For `CCCCCCCCCCCCCCCC(=O)OC(CONC(=N)c1cccnc1)CN1CCCCC1.Cl` (stereo not drawn) [Example 22, N-[2-palmitoyloxy-3-(1-piperidinyl)propoxy]-3-pyridinecarboximidamide monohydrochloride], the “Level of hsp72 relative to the stress exposed control” value (Hsp72 [1]) was 0 (0 indicates that the treatment altered by ±20% the stress induced hsp72 level in the cells), the “HSP72 level relative to the stress exposed control” value (HSP72 [2]; [4]) was “+++ (>100%)” and the “HSP72 level relative to the stress exposed control” value (HSP72 [2]; [5]) was “+ (21-50%)”. For the same compound, the “Survival (%)” value (Male Sprague-Dawley rats) was 100%.

In the case of `CCCCCCCCCCCCCCCC(=O)OC(CON=C(Cl)c1cccnc1)CN1CCCCC1.Cl.Cl` (stereo not drawn) [Example 23, N-[2-palmitoyloxy-3-(1-piperidinyl)propoxy]-3-pyridinecarboximidoyl chloride dihydrochloride], the melting point is reported as 69 to 73.5 °C and the “Level of hsp72 relative to the stress exposed control” value (Hsp72 [1]) is reported as “+ + +”.

With `CC(=O)Nc1ccc(C(N)=NOCC(O)CN2CCCCC2)cc1.Cl` (stereo not drawn) [Example 39] the “Level of hsp72 relative to the stress exposed control” value (Hsp72 [1]) was 0 (0 indicates that the treatment altered by ±20% the stress induced hsp72 level in the cells) and the “Survival (%)” value (Male Sprague-Dawley rats) was 60%.

In the case of `CCCCCCCNC(=O)NOCC(O)CN1CCCCC1` (stereo not drawn) [Example 55, N-[2-hydroxy-3-(1-piperidinyl)propoxy]-N′-heptyl-urea], the “Level of hsp72 relative to the stress exposed control” value (Hsp72 [3]) is reported as “+++ (>100%)” and the “Level of hsp72 relative to the stress exposed control” value (Hsp72 [1]) is reported as “+ +”.

In the case of `O=C(NOCC(O)CN1CCCCC1)Nc1cccc(Cl)c1` (stereo not drawn) [Example 59, N-(3-chlorophenyl)-N′-[2-hydroxy-3-(1-piperidinyl)propoxy]-urea], the “Level of hsp72 relative to the stress exposed control” value (Hsp72 [3]) is reported as “+++ (>100%)” and the “HSP72 level relative to the stress exposed control” value (HSP72 [2]; [4]) is reported as “+++ (>100%)”.

In the case of `Cl.Cl.ClC(=NOCCCN1CCCCC1)c1cccnc1` [Example 78, N-(3-piperidino-1-propoxy)-3-pyridinecarboximidoyl chloride dihydrochloride], the “Level of hsp72 relative to the stress exposed control” value (Hsp72 [1]) is reported as “+ +”, the “HSP72 level relative to the stress exposed control” value (HSP72 [2]; [4]) is reported as “+++ (>100%)” and the “Survival (%)” value (Male Sprague-Dawley rats) is reported as 100%.

With `CCN(CC)CCCON=C(Cl)c1cccnc1.Cl` [O-(3-diethylamino-propoxy)-3-pyridine-carboximidoyl-chloride hydrochloride] the “Level of hsp72 relative to the stress exposed control” value (Hsp72 [1]) was 0 (0 indicates that the treatment altered by ±20% the stress induced hsp72 level in the cells) and the “HSP72 level relative to the stress exposed control” value (HSP72 [2]; [4]) was “+++ (>100%)”.

In the case of “insulin: Insulin (Protophane HM inj.) [reference compound]”, the “levels of GRP-94 compared to the control state” value (GRP-94; insulin alone, 1 week and 2-weeks samples) is reported as “almost doubled” and the “relative amount of GRP-94” value (GRP-94; rats diabetic for 4 weeks, insulinized, not treated with the compound) is reported as “recovery of GRP-94 to the control level”.
